In patent US7012127B1, “Analogues of lipopolysaccharide-binding protein (LBP)-derived peptides that efficiently neutralize lipopolysaccharides (LPS)” (Centro de Ingenicria Genetica y Biotecnologia, priority 1999, dated 2006):

Experiments:
[1] = test system: interaction between hLBP and E. coli LPS; test: ELISA: binding of biotinylated-LPS to surface-captured human LBP in the presence of peptides; details: LPS and peptide incubated 2 h at room temperature; fixed quantities of peptide
From the text: This example describes the capacity of preferred peptides of the invention to block the interaction between LBP and E. coli LPS. An ELISA was used to determine the binding of biotinylated-LPS to surface-captured human LBP, in the presence or absence of fixed quantities of the selected peptides. LPS was biotinylated according to standard procedures. Human LBP (hLBP) was captured by using a specific monoclonal antibody, purified by affinity chromatography. Mixtures of LPS and each peptide were incubated during 2 h at room temperature, and then 100 μL were added to hLBP-containing wells. The binding of biotinylated-LPS to hLBP was detected with horseradish peroxidase-conjugated streptavidin. The assay was developed by adding a chromogenic substrate. […] Each experiment recorded the interaction of hLBP and biotinylated-LPS in absence of peptides, in presence of LBP86-99, and in the example presented in FIG. 2 the effect of a non-related cationic peptide (C5,3).
Human LBP was captured to the plates using a specific monoclonal antibody. Binding of biotinylated-LPS was detected with an streptavidin-horseradish peroxidase conjugate. The extent to which the peptide LBP86-99 (LBP) inhibits this interaction is also shown.
The experimental conditions were similar to those described in FIG. 1. The effect of a non-related cationic peptide, C5,3 is also included.

[2] = test system: E. coli LPS lethal challenge in BALB/c mice; test: Endotoxin shock model in Actinomycin D-sensitized mice, survival; assay type: in vivo; details: Actinomycin D 7.5 μg i.p., E. coli LPS 1 μg/mouse mixed with peptide (1 h, 37° C.), equimolar doses, survival over 120 h, p<0.05 vs. vehicle or B6,1
Procedure: An endotoxin shock animal model was used to determine if the peptides of this invention were able to block complex physiological responses triggered by LPS. In this model mice were sensitized with Actinomycin D to increase LPS-mediated toxic responses. With this purpose, Actinomycin D (7.5 μg) was administered i.p. to 6 to 8 weeks-old female mice. Simultaneously each mice received LPS, and survival was evaluated every 24 h during 120 h.
The effect of peptides of the present invention on mice survival was assessed by administering E. coli LPS (1 μg/mouse in saline vehicle) or LPS:peptide mixtures mixtures (previously incubated during 1 h at 37° C.) to BALB/c sensitized mice. FIG. 6 represents the results of a representative experiment where the following peptides were each administered at equimolar doses to groups of 20 mice: LBP86-99, LBPA94, LBPAs95, LBPA98 or B6, 1 (cationic, non-related peptide). […] The aforementioned in vivo neutralizing property of the peptides of the invention is relevant for their application in prophylactic or therapeutic methods for sepsis and other associated disorders.
Survival in groups of BALB/c mice treated with LBP86-99 (LBP) and B6,1 is also shown. Mice survival was recorded each 24 h during 120 h.

[3] = test system: LPS-induced human peripheral blood mononuclear cells (PBMC); test: Release of TNF by LPS-induced human PBMC; assay type: cell-based; details: E. coli 0111:B4 LPS incubated with peptide 2 h at 37° C.; human LBP 200 ng/mL; TNFα in supernatants after 18 h; average of three experiments
Procedure: In order to determine if the peptides of the present invention were able to neutralize LPS-mediated responses, their ability to reduce the release of TNF by LPS-activated human peripheral blood cells was estimated. This assay evaluates the release of TNF by LPS-induced human peripheral blood mononuclear cells (PBMC), using concentrations of LPS commonly found in septic patients. LPS was incubated with fixed concentrations of each peptide during 2 h at 37° C. and the mixtures were then added to PBMC. The culture medium was supplemented with human LBP (200 ng/mL) and plates were incubated at 37° C. in a 5% CO2 atmosphere. TNFα was measured in culture supernatants after 18 h using a human TNF-α specific ELISA. FIG. 4 represents the average results from three different experiments. […] LBPA95 and LBPA96. […] Similar results were observed when other concentrations of LPS (2 or 10 ng/mL) and hLBP (20 or 100 ng/mL) were used.
The effects on this assay of LBP86-99 (LBP), LBPA91, B6,1 and polymyxin B (PMB) are also shown.

[4] = test system: LPS-stimulated human PBMC; test: LPS-induced IL-6 production in cultures of human PBMC; assay type: cell-based; details: at every hLBP concentrations tested
Procedure: In order to determine if the peptides of the present invention were able to neutralize LPS-mediated responses, their ability to reduce the release of TNF by LPS-activated human peripheral blood cells was estimated. This assay evaluates the release of TNF by LPS-induced human peripheral blood mononuclear cells (PBMC), using concentrations of LPS commonly found in septic patients. LPS was incubated with fixed concentrations of each peptide during 2 h at 37° C. and the mixtures were then added to PBMC. The culture medium was supplemented with human LBP (200 ng/mL) and plates were incubated at 37° C. in a 5% CO2 atmosphere. TNFα was measured in culture supernatants after 18 h using a human TNF-α specific ELISA. […]
This invention provides peptides with advantageous functions over other LBP-derived peptides that have the native sequence or different a.a. replacements to those herein described at positions +1, +5, +6, +7, +9, +10, +11, +12 and +13. […] IL-6 was measured in culture supernatants after 18 h using a human IL-6 specific ELISA. In the represented experiment, the following peptides were evaluated; LPB86-99, LBP-H (LBP86-101, SEQ ID NO. 56)^13, LBPA94, LBPA95, and LBPA98. […]
Results are expressed as % inhibition of IL-6 release compared with the cytokine production in the absence of peptides The effects on this assay of LBP86-99, (LBP), LBP-H and B6,1 are also shown.

| Substance | interaction between hLBP and E. coli LPS (binding of biotinylated-LPS to captured hLBP) [1] | mice survival [2] | LPS-stimulated TNF release by human PBMC [3] | reduction of the LPS-triggered response (IL-6) [4] |
| --- | --- | --- | --- | --- |
| LBPA90: LBP 86-99 peptide analogue, SEQ ID No.3 (RVQGAWKVRKSFFK) | notably impaired | – | – | – |
| LBPA95: LBP 86-99 peptide analogue, SEQ ID No.5, essential a.a. at position +10 (RVQGRWKVRASFFK) | notably impaired | significantly increased | Reduced levels of cytokine release | more than 70% |
| LBPA94: LBP 86-99 peptide analogue, SEQ ID No.4, essential a.a. at position +9 (RVQGRWKVAKSFFK) | notably impaired | significantly increased | Reduced levels of cytokine release | – |
| LBP86-99: peptide with the native sequence of the 86-99 a.a. region of human LBP mature protein (RVQGRWKVRKSFFK) [reference compound] | – | only marginally | Reduced levels of cytokine release | – |
| LBPA98: LBP 86-99 peptide analogue, SEQ ID No.7, essential a.a. at position +13 (RVQGRWKVRKSFAK) | notably impaired | significantly increased | – | – |
| LBPA86: LBP 86-99 peptide analogue, SEQ ID No.2 (AVQGRWKVRKSFFK) | notably impaired | – | – | – |
| LBPA91: peptide which has tryptophan residue at position (6) replaced with alanine, SEQ ID No.55 (RVQGRAKVRKSFFK) | not affected | – | did not inhibit | – |
| LBPA96: LBP 86-99 peptide analogue, SEQ ID No.6 (RVQGRWKVRKAFFK) | notably impaired | – | Reduced levels of cytokine release | – |
| LBPA92: peptide with a residue at +6, +7 or +12 distinct from those of the invention, SEQ ID No.53 (RVQGRWAVRKSFFK) | not affected | – | – | – |
| LBPA97: peptide with a residue at +6, +7 or +12 distinct from those of the invention, SEQ ID No.54 (RVQGRWKVRKSAFK) | not affected | – | – | – |
